Test results: US10064858B2, “Methods and compositions for treating bacterial infections with iron chelators” (THE UNITED STATES OF AMERICA, AS REPRESENTED BY THE …, priority 2011, dated 2018)
Like-named read-outs stand apart in the source and are kept apart here.

Experiments:
Format in all cases: cell-based
[1] = tested on: clinical isolates of A. baumannii; assay: MIC for clinical isolates in CAMHB media (Table 3); details: Acinetobacter baumannii
Method: Individual MICs were determined following the microdilution method recommended by CLSI in cationic-adjusted Mueller-Hinton Broth (CAMHB), or M9 media. […] Tests were performed in triplicate. MIC of iron chelators were determined for noscomial ESKAPE pathogens.

[2] = tested on: A. baumannii AB 19606, AB 17978; assay: Checkerboard assay, chelator with antibiotic (FIC); details: for checkerboard interaction: AB19606
Description: Drug interactions were initially evaluated with the “checkerboard” microdilution design, which provided a matrix of all drug combinations assayed in terms of fractions of the previously determined MIC. The checkerboard microdilution design is described in R. J. Tallarida, “Drug Synergism: Its Detection and Applications,” Journal of Pharmacology and Experimental Therapeutics, 865-872 (2001); and in R. L. White, et al., (1996), supra. FIGS. 39A and 39B show the wellplates having different concentrations of iron chelator and antibiotic, as labeled along the x-axis and y-axis. […] The checkerboard assay was used to asses other combinations of iron chelators and antibiotics. The fractional inhibitory concentration index (FIC), which was calculated as follows: FIC=(MIC A in combination/MIC A)+(MIC B in combination/MIC B). […] Blank spaces indicate concentrations not tested. […] Against the species PA PAO1 and PA 27853, all the antibiotics except for Ami.

[3] = tested on: E. coli EC35218; assay: Time-kill assay in CAMHB
Method: Reductions in colony forming units (CFU)/mL were determined over time (time-kill assay) after exposure to VK28 and deferiprone (DFP), the two iron chelators that performed best in MIC assays when compared to controls. To better represent the iron content found in the human body, MIC and time-kill assays were also determined in minimal media and tissue culture media. Time-Kill assays were performed as previously described in G. P. Neupane et al., “In vitro time-kill activities of ciprofloxacin alone and in combination with the iron chelator deferasirox against Vibrio vulnificus,” European Journal of Clinical Microbiology and Infectious Diseases, 407-410 (2010); and R. L. White, et al., “Comparison of Three Different In Vitro Methods of Detecting synergy: Time-Kill, Checkerboard, and E test,” Journal of Antimicrobial Agents and Chemotherapy, 1914-1918 (1996). Initial inocula, for example 1×10^6 CFU/mL or 1×10^7 CFU/mL were challenged with iron chelator with and/or without an antibiotic. Cells were allowed to grow in CAMHB at 37° C. for 24 hours. Time-kill results were analyzed by determining the change in log 10 numbers of CFU/ml at 0, 6, and 24 h, compared to counts at 0 h. Antimicrobials were considered bactericidal at the lowest concentration that reduced the size of the original inoculum by >3 log 10 CFU/ml (99.9%) over each of the time periods and were considered bacteriostatic if the inoculum's size was reduced by 0 to <3 log 10 CFU/ml.
In this example, time-kill assays were performed as described in Example 9 against different multi-drug resistant bacteria, namely E. coli and MRSA.
In this example, time-kill assays were performed as described in Example 9 using ApoL1 as the iron chelator against two different E. coli strains. […] Time-kill results were analyzed by determining the change in log 10 numbers of CFU/mL at 6 and 24 hours.
In this example, time-kill assays were performed as described in Example 9 using Apo6619 as the iron chelator in combination with Rifampin against E. coli 35718. […] Time-kill results were analyzed by determining the change in log 10 numbers of CFU/mL at 0, 5 and 24 hours.

[4] = tested on: multi-drug resistant bacterial species; assay: Checkerboard, synergy with rifampin (summary)
Description: Drug interactions were initially evaluated with the “checkerboard” microdilution design, which provided a matrix of all drug combinations assayed in terms of fractions of the previously determined MIC. The checkerboard microdilution design is described in R. J. Tallarida, “Drug Synergism: Its Detection and Applications,” Journal of Pharmacology and Experimental Therapeutics, 865-872 (2001); and in R. L. White, et al., (1996), supra. FIGS. 39A and 39B show the wellplates having different concentrations of iron chelator and antibiotic, as labeled along the x-axis and y-axis.
The checkerboard assay was used to asses other combinations of iron chelators and antibiotics. The fractional inhibitory concentration index (FIC), which was calculated as follows: FIC=(MIC A in combination/MIC A)+(MIC B in combination/MIC B). Interaction was defined as synergistic if the FIC was <1.0, preferably <0.5, no interaction if the FIC was >1.0 and <4.0, and antagonistic if the FIC was >4.0.
The assay was run against the multi-drug resistant bacterial species AB 19606, AB 17978, KP ndm, PA PAO1, PA 27853, EC 35718, and EC 43888. Blank spaces indicate concentrations not tested. […] Against the species PA PAO1 and PA 27853, all the antibiotics except for Ami.

[5] = AB967, read-out: MIC of Iron Chelators
[6] = AB2828, read-out: MIC of Iron Chelators
[7] = AB3340, read-out: MIC of Iron Chelators
[8] = AB3560, read-out: MIC of Iron Chelators
[9] = AB3638, read-out: MIC of Iron Chelators
[10] = AB3785, read-out: MIC of Iron Chelators
[11] = AB3806, read-out: MIC of Iron Chelators
[12] = AB3917, read-out: MIC of Iron Chelators
[13] = AB3927, read-out: MIC of Iron Chelators
[14] = AB4025, read-out: MIC of Iron Chelators
[15] = AB4026, read-out: MIC of Iron Chelators
[16] = AB4027, read-out: MIC of Iron Chelators
[17] = AB4052, read-out: MIC of Iron Chelators
[18] = AB4269, read-out: MIC of Iron Chelators
[19] = AB4448, read-out: MIC of Iron Chelators
[20] = AB4456, read-out: MIC of Iron Chelators
[21] = AB4490, read-out: MIC of Iron Chelators
[22] = AB4498, read-out: MIC of Iron Chelators
[23] = AB4795, read-out: MIC of Iron Chelators
[24] = AB4857, read-out: MIC of Iron Chelators
[25] = AB4878, read-out: MIC of Iron Chelators
[26] = AB4932, read-out: MIC of Iron Chelators
[27] = AB4957, read-out: MIC of Iron Chelators
[28] = AB4991, read-out: MIC of Iron Chelators
[29] = AB5001, read-out: MIC of Iron Chelators
[30] = AB5075, read-out: MIC of Iron Chelators
[31] = AB5197, read-out: MIC of Iron Chelators
[32] = AB5256, read-out: MIC of Iron Chelators
[33] = AB5674, read-out: MIC of Iron Chelators
[34] = AB5711, read-out: MIC of Iron Chelators
[35] = AB 17978, in combination with Amikacin
[36] = AB 17978, in combination with Cefotaxine
[37] = AB 17978, in combination with Colisitin (Colistin)
[38] = AB 17978, in combination with Doxycycline
[39] = AB 17978, in combination with Rifampin
[40] = AB 19606, in combination with Amikacin
[41] = AB 19606, in combination with Cefotaxine
[42] = AB 19606, in combination with Colisitin (Colistin)
[43] = AB 19606, in combination with Doxycycline
[44] = AB 19606, in combination with Rifampin
[45] = 1.5 MIC ApoL1 in combination with ¾MIC rifampin, CAMHB

## Cc1c(O)c(=O)ccn1C [ApoL1, 3-hydroxy-1,2-dimethyl-4(1H)-pyridone]
[1]; [5]
  MIC: 250 mg/L
[1]; [6]
  MIC: 500 mg/L
[1]; [7]
  MIC: 250 mg/L
[1]; [8]
  MIC: 500 mg/L
[1]; [9]
  MIC: 250 mg/L
[1]; [10]
  MIC: 250 mg/L
[1]; [11]
  MIC: 500 mg/L
[1]; [12]
  MIC: 250 mg/L
[1]; [13]
  MIC: 250 mg/L
[1]; [14]
  MIC: 250 mg/L
[1]; [15]
  MIC: 250 mg/L
[1]; [16]
  MIC: 250 mg/L
[1]; [17]
  MIC: 250 mg/L
[1]; [18]
  MIC: 250 mg/L
[1]; [19]
  MIC: 250 mg/L
[1]; [20]
  MIC: 250 mg/L
[1]; [21]
  MIC: 250 mg/L
[1]; [22]
  MIC: 250 mg/L
[1]; [23]
  MIC: 250 mg/L
[1]; [24]
  MIC: 250 mg/L
[1]; [25]
  MIC: 250 mg/L
[1]; [26]
  MIC: 500 mg/L
[1]; [27]
  MIC: 125 mg/L
[1]; [28]
  MIC: 250 mg/L
[1]; [29]
  MIC: 125 mg/L
[1]; [30]
  MIC: 250 mg/L
[1]; [31]
  MIC: 250 mg/L
[1]; [32]
  MIC: 250 mg/L
[1]; [33]
  MIC: 250 mg/L
[1]; [34]
  MIC: 250 mg/L
[2]; [35]
  FIC: 1.25
[2]; [36]
  FIC: 1.25
[2]; [37]
  FIC: 1.25
[2]; [38]
  FIC: 1.25
[2]; [39]
  FIC: 0.75
[2]; [40]
  FIC: 1.25
[2]; [41]
  FIC: 1.25
[2]; [42]
  FIC: 1.25
[2]; [43]
  FIC: 2.25
[2]; [44]
  FIC: 0.75
[2]; with doxycycline (FIG. 39B)
  checkerboard interaction: indifference
[2]; with rifampin (FIG. 39A)
  checkerboard interaction: moderate synergy
[3]; [45]
  reduction in CFU/mL: greater than 3 log 10
  time-kill effect: bactericidal (considered bactericidal at the lowest concentration that reduced the size of the original inoculum by >3 log 10 CFU/ml (99.9%))
[3]; 1.5 MIC Iron Chelator alone, CAMHB
  time-kill effect: bacteriostatic (considered bacteriostatic if the inoculum's size was reduced by 0 to <3 log 10 CFU/ml)
[4]
  synergy with rifampin, checkerboard: moderate degrees of synergy

## CNC(=O)c1c(O)c(=O)cc(C)n1C1CC1 [Apo6619, 1-cyclopropyl-3-hydroxy-6-methyl-4-oxo-1,4-dihydro-pyridine-2-carboxylic acid methylamide]
[1]; [5]
  MIC: 250 mg/L
[1]; [6]
  MIC: 500 mg/L
[1]; [7]
  MIC: 250 mg/L
[1]; [8]
  MIC: 500 mg/L
[1]; [9]
  MIC: 500 mg/L
[1]; [10]
  MIC: 500 mg/L
[1]; [11]
  MIC: 1000 mg/L
[1]; [12]
  MIC: 500 mg/L
[1]; [13]
  MIC: 250 mg/L
[1]; [14]
  MIC: 500 mg/L
[1]; [15]
  MIC: 500 mg/L
[1]; [16]
  MIC: 500 mg/L
[1]; [17]
  MIC: 500 mg/L
[1]; [18]
  MIC: 250 mg/L
[1]; [19]
  MIC: 500 mg/L
[1]; [20]
  MIC: 500 mg/L
[1]; [21]
  MIC: 500 mg/L
[1]; [22]
  MIC: 500 mg/L
[1]; [23]
  MIC: 500 mg/L
[1]; [24]
  MIC: 500 mg/L
[1]; [25]
  MIC: 500 mg/L
[1]; [26]
  MIC: 500 mg/L
[1]; [27]
  MIC: 250 mg/L
[1]; [28]
  MIC: 500 mg/L
[1]; [29]
  MIC: 250 mg/L
[1]; [30]
  MIC: 250 mg/L
[1]; [31]
  MIC: 500 mg/L
[1]; [32]
  MIC: 250 mg/L
[1]; [33]
  MIC: 250 mg/L
[1]; [34]
  MIC: 250 mg/L
[2]; [35]
  FIC: 0.75
[2]; [36]
  FIC: 0.75
[2]; [37]
  FIC: 0.75
[2]; [38]
  FIC: 1.25
[2]; [39]
  FIC: 0.75
[2]; [40]
  FIC: 1.25
[2]; [41]
  FIC: 1.25
[2]; [42]
  FIC: 1.25
[2]; [43]
  FIC: 2.25
[2]; [44]
  FIC: 0.75
[3]; E. coli 35718, 1.5×MIC Apo6619 in combination with 0.75×MIC Rifampin, 0, 5 and 24 hours
  time kill curves: combinational effect
[4]
  synergy with rifampin, checkerboard: moderate degrees of synergy
